Experimental data taken from ChEMBL document CHEMBL1909549, “Synthesis, pharmacophore modeling and in vitro activity of 10,11-dihydrodibenzo[b,f]oxepine-4-carboxamide derivatives as novel and potent antagonists of the prostaglandin EP4 receptor” (Bioorg Med Chem Lett, 2011).
Calls of active or inactive are those of the source. No cut-off for these calls is given here.

How the values were obtained:
Cytochrome P450 3A4 [1] = biological target: T1, Cytochrome P450 3A4 (Homo sapiens, UniProt P08684); experiment: Inhibition of recombinant human CYP3A4 using diethoxyfluorescein as substrate at 3 uM by fluorimetry; format: ADME; conditions: recombinant enzyme
T1 sequence (P08684 whole entry): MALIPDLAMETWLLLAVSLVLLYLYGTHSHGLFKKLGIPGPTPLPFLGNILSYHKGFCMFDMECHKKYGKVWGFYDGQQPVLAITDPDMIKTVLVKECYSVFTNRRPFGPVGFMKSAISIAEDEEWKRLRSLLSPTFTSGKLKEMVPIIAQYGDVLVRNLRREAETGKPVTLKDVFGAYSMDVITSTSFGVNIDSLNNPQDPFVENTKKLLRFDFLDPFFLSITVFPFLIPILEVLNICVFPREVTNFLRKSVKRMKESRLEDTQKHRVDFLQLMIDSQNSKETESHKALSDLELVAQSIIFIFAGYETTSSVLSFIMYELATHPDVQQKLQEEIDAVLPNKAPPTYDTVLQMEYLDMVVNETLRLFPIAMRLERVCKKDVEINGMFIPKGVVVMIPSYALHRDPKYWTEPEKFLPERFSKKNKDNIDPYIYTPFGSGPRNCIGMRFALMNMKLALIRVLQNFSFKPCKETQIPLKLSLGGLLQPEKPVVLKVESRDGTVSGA

CYP2C9 = CYP2C9 (Homo sapiens, UniProt P11712); experiment: Inhibition of recombinant human CYP2C9 at 3 uM by fluorimetry; format: ADME
Chain of CYP2C9 (P11712 whole entry): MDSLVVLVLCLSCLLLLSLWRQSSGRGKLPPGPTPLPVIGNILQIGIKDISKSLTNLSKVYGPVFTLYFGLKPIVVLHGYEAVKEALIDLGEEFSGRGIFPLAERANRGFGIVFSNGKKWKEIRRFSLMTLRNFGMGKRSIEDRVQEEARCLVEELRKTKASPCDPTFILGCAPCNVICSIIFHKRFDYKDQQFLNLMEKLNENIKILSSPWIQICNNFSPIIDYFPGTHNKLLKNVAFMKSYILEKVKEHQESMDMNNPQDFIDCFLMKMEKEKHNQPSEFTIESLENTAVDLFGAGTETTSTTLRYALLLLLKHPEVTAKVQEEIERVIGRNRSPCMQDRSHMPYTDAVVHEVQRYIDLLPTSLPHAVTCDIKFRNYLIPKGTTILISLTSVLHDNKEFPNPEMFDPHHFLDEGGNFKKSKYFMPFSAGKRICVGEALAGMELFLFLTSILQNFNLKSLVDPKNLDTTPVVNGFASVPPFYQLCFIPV

CYP2C19 = CYP2C19 (Homo sapiens, UniProt P33261); experiment: (§1) Inhibition of recombinant human CYP2C19 at 3 uM by fluorimetry; format: ADME; conditions: recombinant human CYP2C19
Chain of CYP2C19 (P33261 whole entry): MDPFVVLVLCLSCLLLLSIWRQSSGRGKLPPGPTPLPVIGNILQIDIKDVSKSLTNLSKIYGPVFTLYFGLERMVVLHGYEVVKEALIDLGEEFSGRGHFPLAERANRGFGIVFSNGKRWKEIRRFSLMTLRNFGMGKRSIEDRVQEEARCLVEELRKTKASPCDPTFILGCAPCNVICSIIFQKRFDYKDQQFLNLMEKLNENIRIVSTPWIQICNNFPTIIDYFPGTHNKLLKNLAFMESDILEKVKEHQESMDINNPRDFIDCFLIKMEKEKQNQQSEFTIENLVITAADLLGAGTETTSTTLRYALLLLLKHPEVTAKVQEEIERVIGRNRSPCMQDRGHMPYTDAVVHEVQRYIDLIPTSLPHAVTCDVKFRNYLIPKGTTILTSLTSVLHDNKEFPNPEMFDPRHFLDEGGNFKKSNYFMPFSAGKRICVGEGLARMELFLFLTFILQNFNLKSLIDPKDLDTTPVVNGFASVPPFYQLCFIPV

[2] = biological target: T2, Prostaglandin E2 receptor EP4 subtype (Homo sapiens, UniProt P35408); experiment: Antagonist activity at human EP4 receptor expressed in HEK293 cells assessed as inhibition of PGE2-induced cAMP accumulation by bead-based proximity assay; format: functional, cell-based
T2 sequence (P35408 whole entry): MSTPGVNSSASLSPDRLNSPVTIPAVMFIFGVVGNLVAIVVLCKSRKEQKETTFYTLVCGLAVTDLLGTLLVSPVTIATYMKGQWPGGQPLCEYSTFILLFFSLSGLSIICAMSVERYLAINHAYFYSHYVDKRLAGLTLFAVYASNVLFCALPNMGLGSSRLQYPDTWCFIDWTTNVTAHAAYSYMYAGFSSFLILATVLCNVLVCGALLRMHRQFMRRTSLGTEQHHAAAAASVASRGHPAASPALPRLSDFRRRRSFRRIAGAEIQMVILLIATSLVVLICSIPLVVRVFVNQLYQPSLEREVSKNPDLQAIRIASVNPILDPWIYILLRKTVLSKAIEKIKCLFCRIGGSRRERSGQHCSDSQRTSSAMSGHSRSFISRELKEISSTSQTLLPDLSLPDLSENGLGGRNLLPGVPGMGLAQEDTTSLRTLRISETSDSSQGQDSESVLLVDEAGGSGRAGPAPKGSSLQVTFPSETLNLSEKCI

[3] = biological target: T2, Prostaglandin E2 receptor EP4 subtype; experiment: Displacement of [3H]-PGE2 from human EP4 receptor expressed in HEK293 cells; format: cell-based
[4] = biological target: Prostaglandin E2 receptor EP2 subtype (Homo sapiens, UniProt P43116); experiment: Displacement of [3H]-PGE2 from human EP2 receptor expressed in HEK293 cells; format: cell-based
Chain of Prostaglandin E2 receptor EP2 subtype (P43116 whole entry): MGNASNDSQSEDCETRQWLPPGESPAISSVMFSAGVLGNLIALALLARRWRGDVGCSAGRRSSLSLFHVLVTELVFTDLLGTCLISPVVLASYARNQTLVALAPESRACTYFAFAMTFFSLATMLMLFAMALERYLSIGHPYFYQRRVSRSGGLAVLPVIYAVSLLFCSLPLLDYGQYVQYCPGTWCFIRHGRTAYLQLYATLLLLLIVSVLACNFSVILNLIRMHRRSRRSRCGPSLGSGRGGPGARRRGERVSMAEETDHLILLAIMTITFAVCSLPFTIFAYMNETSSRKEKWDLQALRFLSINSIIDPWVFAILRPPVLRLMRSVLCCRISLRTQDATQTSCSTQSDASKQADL

Cytochrome P450 2D6 = Cytochrome P450 2D6 (Homo sapiens, UniProt P10635); experiment: Inhibition of recombinant human CYP2D6 at 3 uM by fluorimetry; format: ADME; conditions: recombinant enzyme
Chain of Cytochrome P450 2D6 (P10635 whole entry): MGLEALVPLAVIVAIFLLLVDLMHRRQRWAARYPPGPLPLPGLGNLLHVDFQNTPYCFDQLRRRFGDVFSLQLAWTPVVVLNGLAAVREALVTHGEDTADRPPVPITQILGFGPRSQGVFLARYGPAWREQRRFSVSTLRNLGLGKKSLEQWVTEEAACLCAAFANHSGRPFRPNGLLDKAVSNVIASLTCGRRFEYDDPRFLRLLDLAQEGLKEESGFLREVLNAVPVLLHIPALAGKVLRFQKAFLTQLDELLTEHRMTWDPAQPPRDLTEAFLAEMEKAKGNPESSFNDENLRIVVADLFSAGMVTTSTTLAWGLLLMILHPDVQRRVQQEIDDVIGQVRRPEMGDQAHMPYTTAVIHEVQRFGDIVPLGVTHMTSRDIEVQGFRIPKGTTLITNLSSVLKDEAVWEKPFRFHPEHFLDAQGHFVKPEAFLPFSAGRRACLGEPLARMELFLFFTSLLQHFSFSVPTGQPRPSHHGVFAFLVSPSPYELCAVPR

[5] = biological target: T2, Prostaglandin E2 receptor EP4 subtype; experiment: Agonist activity at human EP4 receptor expressed in HEK293 cells assessed as potentiation of cAMP accumulation by bead-based proximity assay in absence of PGE2; format: functional, cell-based
Cytochrome P450 1A2 = biological target: T3, Cytochrome P450 1A2 (Homo sapiens, UniProt P05177); experiment: Inhibition of recombinant human CYP1A2 at 3 uM by fluorimetry; format: ADME; conditions: recombinant enzyme
T3 sequence (P05177 whole entry): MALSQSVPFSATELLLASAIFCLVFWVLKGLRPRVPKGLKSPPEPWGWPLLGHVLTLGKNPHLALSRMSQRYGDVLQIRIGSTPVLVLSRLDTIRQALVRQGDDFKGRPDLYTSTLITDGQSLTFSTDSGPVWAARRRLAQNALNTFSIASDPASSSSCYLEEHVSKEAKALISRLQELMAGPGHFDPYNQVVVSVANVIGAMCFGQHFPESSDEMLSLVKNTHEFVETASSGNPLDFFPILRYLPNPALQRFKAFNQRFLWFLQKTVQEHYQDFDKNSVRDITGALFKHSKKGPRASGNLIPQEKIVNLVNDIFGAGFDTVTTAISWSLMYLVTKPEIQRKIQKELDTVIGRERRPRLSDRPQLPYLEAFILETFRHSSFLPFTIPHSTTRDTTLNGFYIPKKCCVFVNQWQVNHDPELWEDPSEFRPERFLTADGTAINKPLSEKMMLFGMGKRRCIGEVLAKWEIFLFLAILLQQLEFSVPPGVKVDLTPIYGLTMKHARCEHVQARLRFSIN

Cytochrome P450 3A4 [6] = biological target: T1, Cytochrome P450 3A4; experiment: Inhibition of recombinant human CYP3A4 using 7-benzyloxy-4-trifluoromethyl coumarin as substrate at 3 uM by fluorimetry; format: ADME; conditions: recombinant enzyme
Cytochrome P450 2C19 = Cytochrome P450 2C19 (Homo sapiens, UniProt P33261); experiment: as §1; format: ADME; conditions: recombinant enzyme, 3 µM
Chain of Cytochrome P450 2C19 (P33261 whole entry): as the sequence (P33261 whole entry) above

[7] = biological target: T2, Prostaglandin E2 receptor EP4 subtype; experiment: Ratio of CJ-42794 IC50 to compound IC50 for human EP4 receptor expressed in HEK293 cells; format: cell-based

Row | Structure (SMILES) | inhibition (INH) (Cytochrome P450 3A4 [1]) | inhibition at 3 µM (CYP2C9) [%] | inhibition at 3 µM (CYP2C19) [%] | IC50 [2] [nM] | IC50 [3] [nM] | IC50 [4] [nM] | inhibition (INH) (Cytochrome P450 2D6) | Activity [5] | inhibition (INH) (Cytochrome P450 1A2) | inhibition (INH) (Cytochrome P450 3A4 [6]) | inhibition (INH) (Cytochrome P450 2C19) | Ratio IC50 [7]
1 | O=C(O)c1ccc(C2(NC(=O)c3cccc4c3Oc3cc(C(F)(F)F)ccc3CC4)CC2)cc1 | Not Active | 11 | – | 1000 | 4 | > 1000 | Not Active | inactive | Not Active | Not Active | Not Active | –
2 | O=C(O)c1ccc(C2(NC(=O)c3cccc4c3Oc3ccc(C(F)(F)F)cc3CC4)CC2)cc1 | Not Active | 26 | 13 | 34 | 27 | > 1000 | Not Active | inactive | Not Active | Not Active | – | –
3 | C[C@H](NC(=O)c1cc(Cl)ccc1Oc1ccc(F)cc1)c1ccc(C(=O)O)cc1 | – | – | – | 13 | 10 | > 1000 | – | – | – | – | – | –

Continued, values first:

Row | inhibition (INH) (Cytochrome P450 3A4 [1]) | inhibition at 3 µM (CYP2C9) [%] | inhibition at 3 µM (CYP2C19) [%] | IC50 [2] [nM] | IC50 [3] [nM] | IC50 [4] [nM] | inhibition (INH) (Cytochrome P450 2D6) | Activity [5] | inhibition (INH) (Cytochrome P450 1A2) | inhibition (INH) (Cytochrome P450 3A4 [6]) | inhibition (INH) (Cytochrome P450 2C19) | Ratio IC50 [7] | Structure (SMILES)
4 | Not Active | 17 | 11 | 42 | 63 | > 1000 | Not Active | inactive | Not Active | Not Active | – | – | C[C@H](NC(=O)c1cccc2c1Oc1ccc(C(F)(F)F)cc1CC2)c1ccc(C(=O)O)cc1
5 | Not Active | 21 | – | 20 | 2 | > 1000 | Not Active | inactive | Not Active | Not Active | Not Active | 5 | C[C@H](NC(=O)c1cccc2c1Oc1cc(C(F)(F)F)ccc1CC2)c1ccc(C(=O)O)cc1
